Assay results from ChEMBL document CHEMBL3792365, “Dioxol and dihydrodioxin analogs of 2- and 3-phenylacetonitriles as potent anti-cancer agents with nanomolar activity against a variety of human cancer cells” (2016).

Experiments:
Format in all cases: functional
[1] = Growth inhibition of human SNB75 cells at 10 uM after 48 hrs by sulforhodamine B assay; settings: SNB-75, 48 h, values are per cent of control
M14 = experiment: Growth inhibition of human M14 cells at 10 uM after 48 hrs by sulforhodamine B assay; settings: M14, 48 h, values are per cent of control
MDA-MB-435 = experiment: Growth inhibition of human MDA-MB-435 cells at 10 uM after 48 hrs by sulforhodamine B assay; settings: MDA-MB-435, 48 h, values are per cent of control
SK-MEL-2 = experiment: Growth inhibition of human SK-MEL-2 cells at 10 uM after 48 hrs by sulforhodamine B assay; settings: SK-MEL-2, 48 h, values are per cent of control
SK-MEL-28 = experiment: Growth inhibition of human SK-MEL-28 cells at 10 uM after 48 hrs by sulforhodamine B assay; settings: SK-MEL-28, 48 h, values are per cent of control
SK-MEL-5 = experiment: Growth inhibition of human SK-MEL-5 cells at 10 uM after 48 hrs by sulforhodamine B assay; settings: SK-MEL-5, 48 h, values are per cent of control
[2] = Growth inhibition of human UACC62 cells at 10 uM after 48 hrs by sulforhodamine B assay; settings: UACC-62, 48 h, values are per cent of control
[3] = Growth inhibition of human IGROV1 cells at 10 uM after 48 hrs by sulforhodamine B assay; settings: IGROV-1, 48 h, values are per cent of control
[4] = Growth inhibition of human OVCAR4 cells at 10 uM after 48 hrs by sulforhodamine B assay; settings: OVCAR-4, 48 h, values are per cent of control
[5] = Growth inhibition of human NCI-ADR-RES cells at 10 uM after 48 hrs by sulforhodamine B assay; settings: values are per cent of control
[6] = Growth inhibition of human SKOV3 cells at 10 uM after 48 hrs by sulforhodamine B assay; settings: SK-OV-3, 48 h, values are per cent of control
786-0 = experiment: Growth inhibition of human 786-0 cells at 10 uM after 48 hrs by sulforhodamine B assay; settings: 786-0, 48 h, values are per cent of control
ACHN = experiment: Growth inhibition of human ACHN cells at 10 uM after 48 hrs by sulforhodamine B assay; settings: values are per cent of control
[7] = Growth inhibition of human Caki1 cells at 10 uM after 48 hrs by sulforhodamine B assay; settings: CAKI-1, 48 h, values are per cent of control
[8] = Growth inhibition of human RXF393 cells at 10 uM after 48 hrs by sulforhodamine B assay; settings: RXF 393, 48 h, values are per cent of control
SN12C = experiment: Growth inhibition of human SN12C cells at 10 uM after 48 hrs by sulforhodamine B assay; settings: values are per cent of control
[9] = Growth inhibition of human TK10 cells at 10 uM after 48 hrs by sulforhodamine B assay; settings: TK-10, 48 h, values are per cent of control
[10] = Growth inhibition of human DU145 cells at 10 uM after 48 hrs by sulforhodamine B assay; settings: DU-145, 48 h, values are per cent of control
MDA-MB-231 = experiment: Growth inhibition of human MDA-MB-231 cells at 10 uM after 48 hrs by sulforhodamine B assay; settings: MDA-MB-231, 48 h, values are per cent of control
[11] = Growth inhibition of human BT549 cells at 10 uM after 48 hrs by sulforhodamine B assay; settings: BT-549, 48 h, values are per cent of control
T47D = experiment: Growth inhibition of human T47D cells at 10 uM after 48 hrs by sulforhodamine B assay; settings: values are per cent of control
MDA-MB-468 = experiment: Growth inhibition of human MDA-MB-468 cells at 10 uM after 48 hrs by sulforhodamine B assay; settings: MDA-MB-468, 48 h, values are per cent of control
K562 = experiment: Growth inhibition of human K562 cells at 10 uM after 48 hrs by sulforhodamine B assay; settings: K562, 48 h, values are per cent of control
SR = experiment: Growth inhibition of human SR cells at 10 uM after 48 hrs by sulforhodamine B assay; settings: values are per cent of control
A549 = experiment: Growth inhibition of human A549/ATCC cells at 10 uM after 48 hrs by sulforhodamine B assay; settings: A549, 48 h, values are per cent of control
[12] = Growth inhibition of human HOP62 cells at 10 uM after 48 hrs by sulforhodamine B assay; settings: HOP-62, 48 h, values are per cent of control
NCI-H226 = experiment: Growth inhibition of human NCI-H226 cells at 10 uM after 48 hrs by sulforhodamine B assay; settings: NCI-H226, 48 h, values are per cent of control
NCI-H322M = experiment: Growth inhibition of human NCI-H322M cells at 10 uM after 48 hrs by sulforhodamine B assay; settings: values are per cent of control
NCI-H460 = experiment: Growth inhibition of human NCI-H460 cells at 10 uM after 48 hrs by sulforhodamine B assay; settings: NCI-H460, 48 h, values are per cent of control
NCI-H522 = experiment: Growth inhibition of human NCI-H522 cells at 10 uM after 48 hrs by sulforhodamine B assay; settings: NCI-H522, 48 h, values are per cent of control
[13] = Growth inhibition of human COLO205 cells at 10 uM after 48 hrs by sulforhodamine B assay; settings: COLO 205, 48 h, values are per cent of control
[14] = Growth inhibition of human HCC2998 cells at 10 uM after 48 hrs by sulforhodamine B assay; settings: HCC 2998, 48 h, values are per cent of control
[15] = Growth inhibition of human HCT116 cells at 10 uM after 48 hrs by sulforhodamine B assay; settings: HCT-116, 48 h, values are per cent of control
[16] = Growth inhibition of human HCT15 cells at 10 uM after 48 hrs by sulforhodamine B assay; settings: HCT-15, 48 h, values are per cent of control
HT-29 = experiment: Growth inhibition of human HT-29 cells at 10 uM after 48 hrs by sulforhodamine B assay; settings: HT-29, 48 h, values are per cent of control
KM12 = experiment: Growth inhibition of human KM12 cells at 10 uM after 48 hrs by sulforhodamine B assay; settings: KM12, 48 h, values are per cent of control
[17] = Growth inhibition of human SW620 cells at 10 uM after 48 hrs by sulforhodamine B assay; settings: SW-620, 48 h, values are per cent of control
[18] = Growth inhibition of human SF268 cells at 10 uM after 48 hrs by sulforhodamine B assay; settings: SF-268, 48 h, values are per cent of control
[19] = Growth inhibition of human SF539 cells at 10 uM after 48 hrs by sulforhodamine B assay; settings: SF-539, 48 h, values are per cent of control
[20] = Growth inhibition of human SNB19 cells at 10 uM after 48 hrs by sulforhodamine B assay; settings: SNB-19, 48 h, values are per cent of control

| Structure (SMILES) | growth, % of control at 10 µM [1] [%] | growth, % of control at 10 µM (M14) [%] | growth, % of control at 10 µM (MDA-MB-435) [%] | growth, % of control at 10 µM (SK-MEL-2) [%] | growth, % of control at 10 µM (SK-MEL-28) [%] | growth, % of control at 10 µM (SK-MEL-5) [%] | growth, % of control at 10 µM [2] [%] | growth, % of control at 10 µM [3] [%] | growth, % of control at 10 µM [4] [%] | growth, % of control at 10 µM [5] [%] | growth, % of control at 10 µM [6] [%] | growth, % of control at 10 µM (786-0) [%] | growth, % of control at 10 µM (ACHN) [%] | growth, % of control at 10 µM [7] [%] | growth, % of control at 10 µM [8] [%] | growth, % of control at 10 µM (SN12C) [%] | growth, % of control at 10 µM [9] [%] | growth, % of control at 10 µM [10] [%] | growth, % of control at 10 µM (MDA-MB-231) [%] | growth, % of control at 10 µM [11] [%] | further results |
| --- | --- | --- | --- | --- | --- | --- | --- | --- | --- | --- | --- | --- | --- | --- | --- | --- | --- | --- | --- | --- | --- |
| COc1ccc(/C=C(\C#N)c2ccc3c(c2)OCO3)cc1 | 2.2 | 10.5 | -29.1 | -17.7 | 40.7 | 16.4 | 37.5 | 46.3 | 67.3 | 11.6 | 28.8 | 50.3 | 45.7 | 24.8 | 23.3 | 37.2 | 32.2 | 28.3 | 49.6 | 30.3 | growth, % of control at 10 µM (T47D): 35.8%; growth, % of control at 10 µM (MDA-MB-468): 1.2%; growth, % of control at 10 µM (K562): 15.8%; growth, % of control at 10 µM (SR): 11.8%; growth, % of control at 10 µM (A549): 32.3%; growth, % of control at 10 µM [12]: 43.8%; growth, % of control at 10 µM (NCI-H226): 71.8%; growth, % of control at 10 µM (NCI-H322M): 35.7%; growth, % of control at 10 µM (NCI-H460): 15.5%; growth, % of control at 10 µM (NCI-H522): -2.4%; growth, % of control at 10 µM [13]: 11.9%; growth, % of control at 10 µM [14]: 49.4%; growth, % of control at 10 µM [15]: 17.4%; growth, % of control at 10 µM [16]: 17.8%; growth, % of control at 10 µM (HT-29): 6%; growth, % of control at 10 µM (KM12): 30%; growth, % of control at 10 µM [17]: 19.6%; growth, % of control at 10 µM [18]: 38.5%; growth, % of control at 10 µM [19]: -13.8%; growth, % of control at 10 µM [20]: 46% |
| N#C/C(=C\c1ccc2ccccc2n1)c1ccc2c(c1)OCO2 | 5.4 | 90.3 | 48.3 | 87.1 | 88.6 | 95.3 | 86.8 | 55.1 | 45 | 64.3 | 25.8 | 51.9 | 41.4 | 76 | 80 | 73 | 45 | 81.3 | 50.2 | 86.1 | growth, % of control at 10 µM (T47D): 69.4%; growth, % of control at 10 µM (MDA-MB-468): 77.8%; growth, % of control at 10 µM (K562): 70.3%; growth, % of control at 10 µM (SR): 60.5%; growth, % of control at 10 µM (A549): 56.8%; growth, % of control at 10 µM [12]: 69.7%; growth, % of control at 10 µM (NCI-H226): 70.8%; growth, % of control at 10 µM (NCI-H322M): 66.6%; growth, % of control at 10 µM (NCI-H460): 24.7%; growth, % of control at 10 µM (NCI-H522): 58.8%; growth, % of control at 10 µM [13]: 104%; growth, % of control at 10 µM [14]: 95.1%; growth, % of control at 10 µM [15]: 20.5%; growth, % of control at 10 µM [16]: 79.7%; growth, % of control at 10 µM (HT-29): 71.9%; growth, % of control at 10 µM (KM12): 86.8%; growth, % of control at 10 µM [17]: 89.9%; growth, % of control at 10 µM [18]: 62.5%; growth, % of control at 10 µM [19]: 69.6%; growth, % of control at 10 µM [20]: 34.7% |
| N#C/C(=C\c1ccc(Cl)c(Cl)c1)c1ccc2c(c1)OCO2 | 20.3 | 96.5 | 93.7 | 89.7 | 105 | 98.4 | 108 | 67.2 | 26.1 | 79.3 | 70.6 | 72.4 | 49.1 | 87.4 | 94.4 | 93.5 | 90.2 | 94.1 | 80.5 | 94.1 | growth, % of control at 10 µM (T47D): 74.7%; growth, % of control at 10 µM (MDA-MB-468): 101%; growth, % of control at 10 µM (K562): 94.8%; growth, % of control at 10 µM (SR): 77.7%; growth, % of control at 10 µM (A549): 70%; growth, % of control at 10 µM [12]: 88%; growth, % of control at 10 µM (NCI-H226): 98.9%; growth, % of control at 10 µM (NCI-H322M): 74.1%; growth, % of control at 10 µM (NCI-H460): 84.7%; growth, % of control at 10 µM (NCI-H522): 82.7%; growth, % of control at 10 µM [13]: 93.2%; growth, % of control at 10 µM [14]: 92.1%; growth, % of control at 10 µM [15]: 70.1%; growth, % of control at 10 µM [16]: 88.7%; growth, % of control at 10 µM (HT-29): 102%; growth, % of control at 10 µM (KM12): 91.7%; growth, % of control at 10 µM [17]: 89.8%; growth, % of control at 10 µM [18]: 80.9%; growth, % of control at 10 µM [19]: 86.9%; growth, % of control at 10 µM [20]: 105% |
